Measurements reported in PubChem BioAssay (NCI).
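Briefly, cells in 96-well plates were exposed to five compound concentrations for 48 h, and endpoints were estimated by linear interpolation. TGI: concentration producing complete growth inhibition.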

Columns and labels:
Test in all cases: NCI-60 cell line screen, 48 h
IGROV1 ovarian = tested on: IGROV1 ovarian
SR leukemia = tested on: SR leukemia
MCF7 breast = tested on: MCF7 breast
CCRF-CEM leukemia = tested on: CCRF-CEM leukemia
UACC-257 melanoma = tested on: UACC-257 melanoma
HCT-15 colon = tested on: HCT-15 colon
SK-MEL-2 melanoma = tested on: SK-MEL-2 melanoma
HCT-116 colon = tested on: HCT-116 colon
MALME-3M melanoma = tested on: MALME-3M melanoma
RPMI-8226 leukemia = tested on: RPMI-8226 leukemia
A549 NSCLC = tested on: A549 NSCLC
OVCAR-5 ovarian = tested on: OVCAR-5 ovarian
NCI-H23 lung = tested on: NCI-H23 lung
CAKI-1 renal = tested on: CAKI-1 renal
LOX IMVI melanoma = tested on: LOX IMVI melanoma
KM12 colon = tested on: KM12 colon
HS 578T breast = tested on: HS 578T breast
HL-60(TB) leukemia = tested on: HL-60(TB) leukemia
SK-MEL-5 melanoma = tested on: SK-MEL-5 melanoma
SK-MEL-28 melanoma = tested on: SK-MEL-28 melanoma
NCI-H460 lung = tested on: NCI-H460 lung
OVCAR-4 ovarian = tested on: OVCAR-4 ovarian
786-0 renal = tested on: 786-0 renal
K-562 leukemia = tested on: K-562 leukemia
MDA-MB-231 breast = tested on: MDA-MB-231 breast
OVCAR-8 ovarian = tested on: OVCAR-8 ovarian
SK-OV-3 ovarian = tested on: SK-OV-3 ovarian
OVCAR-3 ovarian = tested on: OVCAR-3 ovarian
M14 melanoma = tested on: M14 melanoma
SN12C renal = tested on: SN12C renal
BT-549 breast = tested on: BT-549 breast
A498 renal = tested on: A498 renal
NCI/ADR-RES ovarian = tested on: NCI/ADR-RES ovarian
MDA-MB-435 = tested on: MDA-MB-435
HT29 colon = tested on: HT29 colon
ACHN renal = tested on: ACHN renal
NCI-H522 lung = tested on: NCI-H522 lung
UACC-62 melanoma = tested on: UACC-62 melanoma
TK-10 renal = tested on: TK-10 renal
COLO 205 colon = tested on: COLO 205 colon
MDA-N = tested on: MDA-N
HOP-92 NSCLC = tested on: HOP-92 NSCLC
SNB-19 CNS = tested on: SNB-19 CNS
PC-3 prostate = tested on: PC-3 prostate
U251 CNS = tested on: U251 CNS
SNB-75 CNS = tested on: SNB-75 CNS
DU-145 prostate = tested on: DU-145 prostate
SF-539 CNS = tested on: SF-539 CNS
RXF 393 renal = tested on: RXF 393 renal
EKVX NSCLC = tested on: EKVX NSCLC
T-47D breast = tested on: T-47D breast
SW-620 colon = tested on: SW-620 colon
MOLT-4 leukemia = tested on: MOLT-4 leukemia
HOP-62 NSCLC = tested on: HOP-62 NSCLC
SF-268 CNS = tested on: SF-268 CNS
NCI-H226 lung = tested on: NCI-H226 lung
HCC-2998 colon = tested on: HCC-2998 colon
SF-295 CNS = tested on: SF-295 CNS

Question: How did the TGI (IGROV1 ovarian) turn out when `COc1nc(N)c(N=O)c(OCc2ccccc2)n1` was run?
Answer: > 10 µM

Question: And the TGI (SR leukemia)?
Answer: > 10 µM

Question: What about the TGI (MCF7 breast) of the same compound?
Answer: > 10 µM

Question: What about the TGI (CCRF-CEM leukemia) of the same compound?
Answer: 6.84 µM

Question: And the TGI (UACC-257 melanoma)?
Answer: > 10 µM

Question: And the TGI (HCT-15 colon)?
Answer: > 10 µM

Question: And the TGI (SK-MEL-2 melanoma)?
Answer: > 10 µM

Question: What about the TGI (HCT-116 colon) of the same compound?
Answer: > 10 µM

Question: What about the TGI (MALME-3M melanoma) of the same compound?
Answer: 5.97 µM

Question: And the TGI (RPMI-8226 leukemia)?
Answer: > 10 µM

Question: What about the TGI (A549 NSCLC) of the same compound?
Answer: > 10 µM

Question: And the TGI (OVCAR-5 ovarian)?
Answer: > 10 µM

Question: What about the TGI (NCI-H23 lung) of the same compound?
Answer: > 10 µM

Question: What about the TGI (CAKI-1 renal) of the same compound?
Answer: > 10 µM

Question: And the TGI (LOX IMVI melanoma)?
Answer: > 10 µM

Question: And the TGI (KM12 colon)?
Answer: > 10 µM

Question: What about the TGI (HS 578T breast) of the same compound?
Answer: > 10 µM

Question: What about the TGI (HL-60(TB) leukemia) of the same compound?
Answer: > 10 µM

Question: And the TGI (SK-MEL-5 melanoma)?
Answer: > 10 µM

Question: And the TGI (SK-MEL-28 melanoma)?
Answer: > 10 µM

Question: And the TGI (NCI-H460 lung)?
Answer: > 10 µM

Question: What about the TGI (OVCAR-4 ovarian) of the same compound?
Answer: > 10 µM

Question: What about the TGI (786-0 renal) of the same compound?
Answer: > 10 µM

Question: And the TGI (K-562 leukemia)?
Answer: > 10 µM

Question: What about the TGI (MDA-MB-231 breast) of the same compound?
Answer: > 10 µM

Question: What about the TGI (OVCAR-8 ovarian) of the same compound?
Answer: > 10 µM

Question: What about the TGI (SK-OV-3 ovarian) of the same compound?
Answer: > 10 µM

Question: What about the TGI (OVCAR-3 ovarian) of the same compound?
Answer: > 10 µM

Question: What about the TGI (M14 melanoma) of the same compound?
Answer: > 10 µM

Question: What about the TGI (SN12C renal) of the same compound?
Answer: > 10 µM

Question: And the TGI (BT-549 breast)?
Answer: > 10 µM

Question: What about the TGI (A498 renal) of the same compound?
Answer: > 10 µM

Question: What about the TGI (NCI/ADR-RES ovarian) of the same compound?
Answer: > 10 µM

Question: And the TGI (MDA-MB-435)?
Answer: > 10 µM

Question: What about the TGI (HT29 colon) of the same compound?
Answer: > 10 µM

Question: What about the TGI (ACHN renal) of the same compound?
Answer: > 10 µM

Question: And the TGI (NCI-H522 lung)?
Answer: 3.59 µM

Question: And the TGI (UACC-62 melanoma)?
Answer: > 10 µM

Question: And the TGI (TK-10 renal)?
Answer: > 10 µM

Question: What about the TGI (COLO 205 colon) of the same compound?
Answer: 2.37 µM

Question: And the TGI (MDA-N)?
Answer: > 10 µM

Question: What about the TGI (HOP-92 NSCLC) of the same compound?
Answer: > 10 µM

Question: And the TGI (SNB-19 CNS)?
Answer: > 10 µM

Question: And the TGI (PC-3 prostate)?
Answer: > 10 µM

Question: And the TGI (U251 CNS)?
Answer: > 10 µM

Question: And the TGI (SNB-75 CNS)?
Answer: > 10 µM

Question: And the TGI (DU-145 prostate)?
Answer: > 10 µM

Question: What about the TGI (SF-539 CNS) of the same compound?
Answer: > 10 µM

Question: What about the TGI (RXF 393 renal) of the same compound?
Answer: > 10 µM

Question: What about the TGI (EKVX NSCLC) of the same compound?
Answer: > 10 µM

Question: And the TGI (T-47D breast)?
Answer: 5.49 µM

Question: What about the TGI (SW-620 colon) of the same compound?
Answer: 4.35 µM

Question: What about the TGI (MOLT-4 leukemia) of the same compound?
Answer: > 10 µM

Question: And the TGI (HOP-62 NSCLC)?
Answer: > 10 µM

Question: And the TGI (SF-268 CNS)?
Answer: > 10 µM

Question: And the TGI (NCI-H226 lung)?
Answer: > 10 µM

Question: What about the TGI (HCC-2998 colon) of the same compound?
Answer: > 10 µM

Question: And the TGI (SF-295 CNS)?
Answer: > 10 µM
